Results: article PMC6416464 (Drug Metabolism Letters, 2018)

Columns and labels:
[1] = Metabolic stability, incubation with human liver cytosol; format: in vitro ADME; settings: 1 µM test compound, 1 mg/mL protein
CYP3A4 [2] = molecular target: T1, CYP3A4 (Homo sapiens, UniProt P08684); settings: human, microsomes, 10 µM, pH 7.4
[3] = cited from earlier work
CYP3A4 [4] = molecular target: T1, CYP3A4; experiment: in vitro; settings: microsomes, pH 7.4, % Inhibition of Control Activity CYP3A4 (substrate, testosterone)
CYP3A4 [5] = molecular target: T1, CYP3A4; experiment: in vitro; settings: microsomes, pH 7.4
[6] = Metabolic stability, incubation with human liver microsomes; settings: 1 µM test compound, 0.5 mg/mL protein
CYP1A2 = molecular target: T2, CYP1A2 (Homo sapiens, UniProt P05177); experiment: CYP inhibition in human liver microsomes, CYP1A2; settings: inhibitor 10 µM; HLM; NI: No Inhibitin; 10 µM
T2 sequence (P05177 1-516): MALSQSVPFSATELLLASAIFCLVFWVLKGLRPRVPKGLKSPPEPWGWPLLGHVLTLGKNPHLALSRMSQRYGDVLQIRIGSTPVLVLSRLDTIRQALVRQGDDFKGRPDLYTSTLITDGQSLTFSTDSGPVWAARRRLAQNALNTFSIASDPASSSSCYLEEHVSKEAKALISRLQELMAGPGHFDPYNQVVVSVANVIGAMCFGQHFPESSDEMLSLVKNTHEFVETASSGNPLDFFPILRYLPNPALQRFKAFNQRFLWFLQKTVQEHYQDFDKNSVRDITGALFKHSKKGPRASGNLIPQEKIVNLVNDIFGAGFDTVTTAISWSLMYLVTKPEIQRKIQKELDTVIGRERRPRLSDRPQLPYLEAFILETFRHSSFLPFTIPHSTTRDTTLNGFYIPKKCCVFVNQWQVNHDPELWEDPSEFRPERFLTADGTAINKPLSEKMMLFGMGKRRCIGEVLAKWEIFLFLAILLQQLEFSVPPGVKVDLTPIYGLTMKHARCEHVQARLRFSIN

CYP2C8 = molecular target: T3, CYP2C8 (Homo sapiens, UniProt P10632); experiment: CYP inhibition in human liver microsomes, CYP2C8; settings: human, human liver microsomes, pH 7.4, probe paclitaxel
T3 sequence (P10632 1-490): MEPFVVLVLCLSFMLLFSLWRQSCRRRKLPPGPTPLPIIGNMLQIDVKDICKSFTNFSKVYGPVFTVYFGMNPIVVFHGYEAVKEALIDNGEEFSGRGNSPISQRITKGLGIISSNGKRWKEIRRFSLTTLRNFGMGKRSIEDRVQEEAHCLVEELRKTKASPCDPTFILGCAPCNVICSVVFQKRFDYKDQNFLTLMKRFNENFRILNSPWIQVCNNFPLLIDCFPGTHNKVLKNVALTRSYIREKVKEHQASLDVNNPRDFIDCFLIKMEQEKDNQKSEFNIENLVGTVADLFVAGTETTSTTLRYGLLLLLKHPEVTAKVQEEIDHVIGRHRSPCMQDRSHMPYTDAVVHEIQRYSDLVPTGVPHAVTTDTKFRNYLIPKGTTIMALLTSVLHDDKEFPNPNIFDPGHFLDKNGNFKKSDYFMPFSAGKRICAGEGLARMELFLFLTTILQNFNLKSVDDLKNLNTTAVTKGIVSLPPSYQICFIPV

CYP2C9 = CYP2C9 (Homo sapiens, UniProt P11712); experiment: CYP inhibition in human liver microsomes, CYP2C9; settings: inhibitor 10 µM; HLM; NI: No Inhibitin; 10 µM
CYP2C19 = CYP2C19 (Homo sapiens, UniProt P33261); experiment: CYP inhibition in human liver microsomes, CYP2C19; settings: inhibitor 10 µM; HLM; NI: No Inhibitin; 10 µM
rCYP1A2 = molecular target: T4, rCYP1A2 (Homo sapiens, UniProt P05177); experiment: Metabolic stability / reaction phenotyping with recombinant human CYP1A2
T4 sequence (P05177 1-516): T2 sequence (P05177 1-516)

rCYP2C8 = molecular target: T5, rCYP2C8 (Homo sapiens, UniProt P10632); experiment: Metabolic stability / reaction phenotyping with recombinant human CYP2C8
T5 sequence (P10632 1-490): T3 sequence (P10632 1-490)

rCYP2C9 = rCYP2C9 (Homo sapiens, UniProt P11712); experiment: Metabolic stability / reaction phenotyping with recombinant human CYP2C9
rCYP2D6 = rCYP2D6 (Homo sapiens, UniProt P10635); experiment: Metabolic stability / reaction phenotyping with recombinant human CYP2D6
rCYP2C19 = rCYP2C19 (Homo sapiens, UniProt P33261); experiment: Metabolic stability / reaction phenotyping with recombinant human CYP2C19
[7] = 1 µM test compound, 100 pmol/mL, 30 min
[8] = human, recombinant human CYP1A2, 1 µM, pH 7.4
[9] = human, recombinant human CYP2C8, 1 µM, pH 7.4
[10] = human, recombinant human CYP2C9, 1 µM, pH 7.4
[11] = human, recombinant human CYP2D6, 1 µM, pH 7.4
[12] = human, recombinant human CYP2C19, 1 µM, pH 7.4

T1 sequence (P08684 2-503): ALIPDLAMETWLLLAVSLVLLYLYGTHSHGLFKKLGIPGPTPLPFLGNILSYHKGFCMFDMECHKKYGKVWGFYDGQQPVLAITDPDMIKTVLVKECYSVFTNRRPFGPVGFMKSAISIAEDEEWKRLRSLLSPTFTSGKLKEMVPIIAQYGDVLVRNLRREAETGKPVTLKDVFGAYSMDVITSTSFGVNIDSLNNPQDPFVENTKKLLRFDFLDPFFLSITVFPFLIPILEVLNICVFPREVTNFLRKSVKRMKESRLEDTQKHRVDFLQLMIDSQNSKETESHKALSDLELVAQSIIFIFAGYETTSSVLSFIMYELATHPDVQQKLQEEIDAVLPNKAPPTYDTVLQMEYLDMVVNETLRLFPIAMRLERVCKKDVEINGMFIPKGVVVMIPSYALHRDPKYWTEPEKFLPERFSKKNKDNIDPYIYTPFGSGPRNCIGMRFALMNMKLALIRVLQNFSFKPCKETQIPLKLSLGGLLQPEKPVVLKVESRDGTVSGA
Chain of rCYP2C19 (P33261 whole entry): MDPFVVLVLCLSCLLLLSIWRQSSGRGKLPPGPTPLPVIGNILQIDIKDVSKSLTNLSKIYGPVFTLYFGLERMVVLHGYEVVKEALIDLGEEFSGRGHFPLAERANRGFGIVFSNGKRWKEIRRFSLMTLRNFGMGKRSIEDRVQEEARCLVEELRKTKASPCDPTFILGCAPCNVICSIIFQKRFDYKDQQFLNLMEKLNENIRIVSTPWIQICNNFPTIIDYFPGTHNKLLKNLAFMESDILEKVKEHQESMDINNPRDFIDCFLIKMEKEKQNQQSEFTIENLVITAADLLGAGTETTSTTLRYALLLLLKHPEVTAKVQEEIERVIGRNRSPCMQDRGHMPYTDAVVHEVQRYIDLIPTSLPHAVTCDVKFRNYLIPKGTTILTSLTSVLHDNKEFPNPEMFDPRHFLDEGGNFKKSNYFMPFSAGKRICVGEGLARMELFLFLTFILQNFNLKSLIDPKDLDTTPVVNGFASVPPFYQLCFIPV
Chain of rCYP2C9 (P11712 whole entry): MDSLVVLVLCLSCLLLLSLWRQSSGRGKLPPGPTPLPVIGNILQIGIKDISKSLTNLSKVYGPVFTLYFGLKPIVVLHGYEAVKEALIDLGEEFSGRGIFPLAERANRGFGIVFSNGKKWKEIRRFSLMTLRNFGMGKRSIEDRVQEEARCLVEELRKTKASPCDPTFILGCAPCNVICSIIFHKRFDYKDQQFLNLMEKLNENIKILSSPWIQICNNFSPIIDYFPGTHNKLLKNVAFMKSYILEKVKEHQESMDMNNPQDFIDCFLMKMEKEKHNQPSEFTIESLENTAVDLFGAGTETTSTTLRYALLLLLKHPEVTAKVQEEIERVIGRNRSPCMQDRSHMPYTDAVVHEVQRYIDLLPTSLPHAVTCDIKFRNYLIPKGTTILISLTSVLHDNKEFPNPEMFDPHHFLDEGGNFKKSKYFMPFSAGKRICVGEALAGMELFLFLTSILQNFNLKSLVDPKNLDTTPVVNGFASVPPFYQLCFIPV
Chain of rCYP2D6 (P10635 whole entry): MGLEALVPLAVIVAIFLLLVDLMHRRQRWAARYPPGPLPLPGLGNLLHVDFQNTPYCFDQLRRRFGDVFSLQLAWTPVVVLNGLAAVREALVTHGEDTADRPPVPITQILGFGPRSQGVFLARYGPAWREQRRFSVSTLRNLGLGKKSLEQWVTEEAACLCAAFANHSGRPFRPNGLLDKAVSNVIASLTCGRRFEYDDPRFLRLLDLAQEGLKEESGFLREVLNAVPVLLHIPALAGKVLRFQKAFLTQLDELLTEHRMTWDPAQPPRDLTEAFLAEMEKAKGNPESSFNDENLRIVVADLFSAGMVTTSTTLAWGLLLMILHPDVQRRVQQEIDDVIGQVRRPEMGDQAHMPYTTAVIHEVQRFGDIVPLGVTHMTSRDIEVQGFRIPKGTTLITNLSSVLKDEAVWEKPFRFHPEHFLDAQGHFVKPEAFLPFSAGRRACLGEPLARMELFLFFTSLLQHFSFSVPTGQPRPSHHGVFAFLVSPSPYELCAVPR
Chain of CYP2C9 (P11712 whole entry): as the sequence (P11712 whole entry) above
Chain of CYP2C19 (P33261 whole entry): as the sequence (P33261 whole entry) above

CCC[S+]([O-])c1ccc2[nH]c(NC(=O)OC)nc2c1 (centres unmarked) [Albendazole sulfoxide, albendazole sulfoxide]
% Metabolized at 30 min Incubation with Human Liver Fractions/Enzymes Cytosol [1]: 0.20% | % Inhibition of Control Activity CYP3A4 (substrate, testosterone) (CYP3A4 [2]): 4.82% | increase of AUC ([3]; with transport inhibitors such as verapamil, quinidine and ivermectin): > 50% | inhibition at 2 µM (CYP3A4 [4]): 2.48% | inhibition at 2 µM (CYP3A4 [5]): < 0% | inhibition at 10 µM (CYP3A4 [5]): < 0% | % Metabolized at 30 min Incubation with Human Liver Fractions/Enzymes HLM [6]: 4.23% | % Inhibition of Control Activity CYP1A2 (CYP1A2): 22.20% | inhibition at 2 µM (CYP2C8): < 0% | inhibition at 10 µM (CYP2C8): < 0% | % Inhibition of Control Activity CYP2C9 (CYP2C9): 9.49%

CCCSc1ccc2nc(NC(=O)OC)[nH]c2c1 [Albendazole, albendazole, reference compound]
% Metabolized at 30 min Incubation with Human Liver Fractions/Enzymes Cytosol [1]: 0.00% | increase of exposure ([3]; with CYP3A4 inhibitor grapefruit juice): 3.2 fold | % Metabolized at 30 min Incubation with Human Liver Fractions/Enzymes HLM [6]: 50.06% | inhibition at 2 µM (CYP2C8): < 0% | inhibition at 10 µM (CYP2C8): < 0% | % Inhibition of Control Activity CYP2C9 (CYP2C9): 12.40% | % Inhibition of Control Activity CYP2C19 (CYP2C19): 4.20% | % Metabolized at 30 min Incubation with Human Liver Fractions/Enzymes rCYP1A2 (rCYP1A2; [7]): 98.92% | % Contribution of CYP Enzymes (fmCYP) in Metabolism, CYP1A2 (rCYP1A2; [8]): 74.79% | Predicted Microsomal Clint, CYP1A2 (rCYP1A2; [8]): 78.510 µL/min/mg Protein | rCYP Clint, CYP1A2 (rCYP1A2; [8]): 1.510 µL/min/pmol | % Metabolized at 30 min Incubation with Human Liver Fractions/Enzymes rCYP2C8 (rCYP2C8; [7]): 2.43% | % Contribution of CYP Enzymes (fmCYP) in Metabolism, CYP2C8 (rCYP2C8; [9]): 0.50% | Predicted Microsomal Clint, CYP2C8 (rCYP2C8; [9]): 0.525 µL/min/mg Protein | rCYP Clint, CYP2C8 (rCYP2C8; [9]): 0.008 µL/min/pmol | % Metabolized at 30 min Incubation with Human Liver Fractions/Enzymes rCYP2C9 (rCYP2C9; [7]): 5.96% | % Contribution of CYP Enzymes (fmCYP) in Metabolism, CYP2C9 (rCYP2C9; [10]): 1.87% | Predicted Microsomal Clint, CYP2C9 (rCYP2C9; [10]): 1.966 µL/min/mg Protein | rCYP Clint, CYP2C9 (rCYP2C9; [10]): 0.020 µL/min/pmol | % Metabolized at 30 min Incubation with Human Liver Fractions/Enzymes rCYP2D6 (rCYP2D6; [7]): 64.92% | % Contribution of CYP Enzymes (fmCYP) in Metabolism, CYP2D6 (rCYP2D6; [11]): 3.33% | Predicted Microsomal Clint, CYP2D6 (rCYP2D6; [11]): 3.491 µL/min/mg Protein | rCYP Clint, CYP2D6 (rCYP2D6; [11]): 0.349 µL/min/pmol | % Metabolized at 30 min Incubation with Human Liver Fractions/Enzymes rCYP2C19 (rCYP2C19; [7]): 95.76% | % Contribution of CYP Enzymes (fmCYP) in Metabolism, CYP2C19 (rCYP2C19; [12]): 19.06% | Predicted Microsomal Clint, CYP2C19 (rCYP2C19; [12]): 20.011 µL/min/mg Protein | rCYP Clint, CYP2C19 (rCYP2C19; [12]): 1.053 µL/min/pmol
